Laboratory results taken from patent US8937167B2 (Washington University, priority 2009, dated 2015).
Converted amounts (≈) assume the structure as drawn. “And” between values parts separate entries of the source, which are not always exact repeats. Identical values can stand only once. “Also recorded” adds a separate entry of the source. Like-named read-outs stand apart in the source and are kept apart here.

How the values were obtained:
PBC-1 = assay: Growth curve / MIC determination in LB; assay type: cell-based, E. coli (UPEC); settings: PBC-1
Experimental: Growth curve. […] Mannoside ZFH-2056 was added at 100 μM. Growth curves were performed in a 96-well plate at 37° C. with A600 readings taken every 30 min for 8 h.
(§1) Mannoside 6 was added at 100 μM. Growth curves were performed in a 96-well plate at 37° C. with A600 readings taken every 30 min for 8 h. Minimum inhibitory concentration (MIC) was calculated as the lowest concentration of antibiotic that prevented growth of the bacterial strain.

UTI89 [1] = assay: Growth curve / MIC determination in LB; assay type: cell-based, E. coli (UPEC); settings: Escherichia coli
Experimental: as §1

FimH [2] = target: T1, FimH (Escherichia coli, UniProt P08191); assay: biochemical; assay type: binding, E. coli; settings: FP assay potency
FimH [3] = target: T1, FimH; settings: previously reported, SPR; cited from earlier work
UTI89 biofilm = assay: Biofilm in human urine under flow on silicone tubing (crystal violet, CFU); assay type: cell-based, uropathogenic E. coli UTI89; settings: 1% in human urine, 24 h
Experimental: Biofilms were grown as described by Ferrieres et al. (2007; FEMS Immun. Med. Micro 51:212) on All Silicone Foley catheters (Bard Medical, GA) or silicone tubing (Thermo Fisher Scientific Inc., PA) and modified as follows. All tubing and connectors in the system were autoclaved and ethanol sterilized prior to use. The system was assembled similar to the previously described flow-chamber system. Priming of the catheter or the silicone tubing occurred at 37° C. for 20 min by flowing pre-warmed pooled human urine. Urine was collected from healthy volunteers as approved by the Institutional Review Board of Washington University in St. Louis. Pooled samples were spun at 10000×g for 15 min, filtered through […], and, if necessary, stored at 4° C. for no more than 3 days. Three milliliters of stationary-phase E. coli from overnight cultures were diluted to 1−2×10^6 CFU/ml in human urine and injected into the catheter or silicone tubing using a 30 cc gauge needle. The bacteria were allowed to attach to the substratum for 1 h before urine flow via Watson-Marlow peristaltic pump 205S was resumed at 0.5 ml min^−1. […] Viable bacterial counts were assessed by serial dilution on LB plate with appropriate antibiotics. […] The bound crystal violet was then dissolved in 200 μl of 33% acetic acid and absorbance measured at 595 nm. The amount of biofilm was expressed as CFU/ml per cm^2 and A595/cm^2. […]

FimH [4] = target: FimH (Escherichia coli, UniProt Q1R2J4);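 note: hemagglutination inhibition of guinea pig erythrocytes agglutinated by type 1 piliated uropathogenic E. coli via FimH mannose binding, quantified through serial dilutions of compound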
Experimental: In some embodiments, activity of the compound is measured using hemmagglutination titer of guinea pig red blood cells. Hemagglutination of guinea pig red blood cells by type1 piliated UPEC is dependent upon FimH mannose binding ability and serial dilutions allow a quantitative analysis.
Biological activity against FimH was evaluated using a guinea pig red blood cell-based hemagglutination (HA) assay (ref) in which the concentration of the mannoside on reducing agglutination by 50% was used as the primary endpoint (50% HA titer).
Hemagglutination of guinea pig red blood cells by type1 piliated UPEC is dependent upon FimH mannose binding ability. Serial dilutions allow a quantitative analysis using this assay.
Hemagglutination assays for mannose-sensitive agglutination of guinea pig red blood cells were performed as previously described.

UTI89 [5] = assay: Chronic cystitis mouse model, bladder titers after oral mannoside treatment; assay type: in vivo, E. coli (UPEC); host C3H/HeN mouse; settings: PO 50 mg/kg, 6 hours posttreatment, relative to PBS
Experimental: Mice were infected with the uropathogenic E. coli (UPEC) strain UTI89. Animals that established chronic infection were treated at day 12 post infection with 5 doses of 50 mg/kg of Mannoside 8 administered 8 h apart (mice treated with PBS in the same way were included as controls). Mice were sacrificed 48 h post initial dose and bladder titers were enumerated.
In order to determine the therapeutic potential of 6 for treating chronic UTIs, a unique preclinical murine model was adopted. In humans, the ultimate outcome of UPEC infection of the urinary tract ranges from asymptomatic bacteriuria to acute self-limiting infection to chronic/recurrent UTI. Similarly, the outcome of UTI in C3H/HeN mice ranges from self-limiting to long-lasting, chronic cystitis characterized by persistent, high titer bacteriuria (>10^4 colony forming units (CFU)/ml), high titer bacterial bladder burdens at sacrifice >2 weeks post-infection (wpi), chronic inflammation, and urothelial necrosis. […] Thus, C3H/HeN mice were infected with 1×10^7 CFU of UTI89 and mice developing chronic cystitis, as determined by persistent urine titers of […] through 2 weeks post infection (wpi), were PO treated at 2 wpi with 6 at a single dose of 100 or 50 mg/kg to evaluate the ability of mannoside to treat UTI. 6 hours post-treatment bacterial counts in the bladder were enumerated. […]

**Q.** Which MIC (PBC-1; Escherichia coli, read-out: Minimum Inhibition Concentration (MIC)) does the source give for `COc1cc(Cc2cnc(N)nc2N)cc(OC)c1OC` [TMP, Trimethoprim] here?
**A.** Its MIC is 256 µg/mL (≈ 882 µM).

**Q.** What about the MIC (PBC-1) of the same molecule?
**A.** The MIC was 0.000256 µg/mL (≈ 0.000882 µM).

**Q.** And the MIC (UTI89 [1])?
**A.** The MIC was 0.05 µg/mL (≈ 0.172 µM).

**Q.** With `CCCCCCCOC1OC(CO)C(O)C(O)C1O` (stereo not shown) [Heptyl mannoside, reference compound] as the molecule, how does the EC50 (FimH [2]) read?
**A.** The EC50 was 89 nM.

**Q.** What about the Kd (FimH [3]) of the same molecule?
**A.** Its Kd is 5 nM.

**Q.** Which “biofilm biomass (crystal violet)” value (UTI89 biofilm) does the source give for `COC1O[C@H](CO)[C@@H](O)[C@H](O)[C@@H]1O` (stereo partly shown) [methyl mannose] here?
**A.** Its value is “significantly reduced biomass; also recorded: prevents UPEC biofilm formation”.

**Q.** And the “biofilm-adherent cells (CFU)” value (UTI89 biofilm)?
**A.** Its value is “significantly reduced”.

**Q.** Which “fold more potent in vitro” value (FimH [4]; 10 relative to 8, Examples 25-29 numbering) does the source give for `CNC(=O)c1cc(C(=O)NC)cc(-c2ccc(O[C@H]3O[C@H](CO)[C@@H](O)[C@H](O)[C@@H]3O)c(C(F)(F)F)c2)c1` [Compound 10, N1,N3-dimethyl-5-[3-(trifluoromethyl)-4-[(2R,3S,4S,5S,6R)-3,4,5-trihydroxy-6-(hydroxymethyl)tetrahydropyran-2-yl]oxy-phenyl]benzene-1,3-dicarboxamide] here?
**A.** The value was 8 fold.

**Q.** What about the HAI (FimH [4]; Examples 25-29 numbering) of the same molecule?
**A.** The HAI was 8 nM.

**Q.** What about the “fold improvement (HAI)” value (FimH [4]; over butyl-α-D-mannoside) of the same molecule?
**A.** Its value is 15,000 fold.

**Q.** And the “fold better (HAI)” value (FimH [4]; than lead 6, Examples 25-29 numbering)?
**A.** Its value is 50 fold.

**Q.** What about the “reduction in bladder bacterial counts” value (UTI89 [5]) of the same molecule?
**A.** The value was 4 log and 3 log.

**Q.** Which MIC (UTI89 [1]) does the source give for `Cc1cc(NS(=O)(=O)c2ccc(N)cc2)no1` [SMZ, Sulfamethoxazole] here?
**A.** The MIC was 0.25 µg/mL (≈ 0.987 µM).
